Laboratory results: US10336725B2, “Chemical compounds” (AstraZeneca AB, priority 2014, dated 2019)
Counter-ions that a name gives are not always drawn.

Molecular target: T1, Sodium Channel ENaC (Homo sapiens, UniProt P37088+P51168+P51170)
T1 construct: Human primary bronchial epithelial cells differentiated at air-liquid interface (ALI); host or cells: Human primary bronchial epithelial cells differentiated at air-liquid interface
T1 sequence (P37088 1-669): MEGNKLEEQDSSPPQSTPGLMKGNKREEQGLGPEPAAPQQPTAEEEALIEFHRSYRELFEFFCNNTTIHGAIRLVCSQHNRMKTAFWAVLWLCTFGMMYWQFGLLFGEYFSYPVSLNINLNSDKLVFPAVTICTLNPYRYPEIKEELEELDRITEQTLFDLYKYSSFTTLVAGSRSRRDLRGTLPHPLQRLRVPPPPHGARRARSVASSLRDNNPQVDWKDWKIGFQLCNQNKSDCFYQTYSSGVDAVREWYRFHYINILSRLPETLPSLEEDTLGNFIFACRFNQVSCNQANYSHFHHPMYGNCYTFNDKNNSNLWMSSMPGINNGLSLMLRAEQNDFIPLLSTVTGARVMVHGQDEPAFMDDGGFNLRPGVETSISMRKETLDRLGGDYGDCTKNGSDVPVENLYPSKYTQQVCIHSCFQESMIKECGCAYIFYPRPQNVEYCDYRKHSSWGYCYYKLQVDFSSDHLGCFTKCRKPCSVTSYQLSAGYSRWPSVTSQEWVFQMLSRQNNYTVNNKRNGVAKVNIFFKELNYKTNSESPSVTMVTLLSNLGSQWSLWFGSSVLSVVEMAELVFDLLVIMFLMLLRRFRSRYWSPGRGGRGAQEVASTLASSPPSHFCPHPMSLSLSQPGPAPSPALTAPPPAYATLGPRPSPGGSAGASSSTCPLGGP
T1 sequence (P51168 1-640): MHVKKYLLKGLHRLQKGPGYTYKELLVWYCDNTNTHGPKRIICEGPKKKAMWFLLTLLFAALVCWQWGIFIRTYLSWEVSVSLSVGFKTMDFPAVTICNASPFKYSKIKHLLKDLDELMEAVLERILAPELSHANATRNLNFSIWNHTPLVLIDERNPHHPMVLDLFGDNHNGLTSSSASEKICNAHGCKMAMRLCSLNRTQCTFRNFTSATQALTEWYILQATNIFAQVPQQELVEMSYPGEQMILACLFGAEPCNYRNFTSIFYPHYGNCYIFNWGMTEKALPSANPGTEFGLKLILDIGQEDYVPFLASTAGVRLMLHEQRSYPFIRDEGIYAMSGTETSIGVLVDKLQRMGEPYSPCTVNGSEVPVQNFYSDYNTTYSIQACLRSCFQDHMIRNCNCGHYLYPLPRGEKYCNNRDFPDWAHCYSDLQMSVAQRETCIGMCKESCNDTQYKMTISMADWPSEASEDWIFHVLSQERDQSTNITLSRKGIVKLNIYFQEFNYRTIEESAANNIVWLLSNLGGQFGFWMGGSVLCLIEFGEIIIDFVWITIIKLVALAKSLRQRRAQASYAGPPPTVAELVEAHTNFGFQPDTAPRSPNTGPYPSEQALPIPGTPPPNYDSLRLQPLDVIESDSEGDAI
T1 sequence (P51170 1-649): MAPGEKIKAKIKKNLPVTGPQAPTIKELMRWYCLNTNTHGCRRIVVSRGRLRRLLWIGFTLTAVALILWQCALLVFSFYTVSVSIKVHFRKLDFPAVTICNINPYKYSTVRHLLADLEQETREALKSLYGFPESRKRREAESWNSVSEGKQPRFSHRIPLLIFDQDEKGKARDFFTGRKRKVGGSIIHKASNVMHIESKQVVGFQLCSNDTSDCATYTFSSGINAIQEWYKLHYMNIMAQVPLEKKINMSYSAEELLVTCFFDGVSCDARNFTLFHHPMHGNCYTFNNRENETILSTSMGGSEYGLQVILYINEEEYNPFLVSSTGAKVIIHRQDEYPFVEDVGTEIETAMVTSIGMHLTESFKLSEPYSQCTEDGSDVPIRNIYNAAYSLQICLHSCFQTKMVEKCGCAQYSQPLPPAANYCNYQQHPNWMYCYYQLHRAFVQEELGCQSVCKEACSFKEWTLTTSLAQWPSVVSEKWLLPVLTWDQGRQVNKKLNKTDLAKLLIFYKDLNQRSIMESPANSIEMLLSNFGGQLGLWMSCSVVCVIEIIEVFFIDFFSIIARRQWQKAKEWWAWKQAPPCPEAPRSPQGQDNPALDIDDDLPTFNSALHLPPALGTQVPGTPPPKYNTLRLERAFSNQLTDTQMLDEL
Test: Sodium Channel ENaC Ussing Chamber Test (short circuit current)
Assay type: cell-based
Details: human primary bronchial epithelial cells at air-liquid interface; inhibition of short circuit current; compounds added to the apical side
Protocol: Sodium Channel ENaC Ussing Chamber Test
Human primary bronchial epithelial cells differentiated at air-liquid interface (ALI) on snapwell permeable supports (MatTek Corporation, MA, USA, cat no AIR-100-SNP) were maintained at ALI culture in a humidified incubator at 37° C. and 5% CO2. Basolateral medium (MatTek Corporation, MA, USA cat no AIR-100-MM-ASY) was changed every second day. Mucus or liquid formed on the apical side was gently aspirated every second day to maintain viability and performance of the cells.
The transepithelial voltage between the luminal/apical and basolateral membrane were measured in the ussing chamber consisted of vertical, in-house manufactured ussing chambers, DVC-1000 V/C clamps with preamplifiers (World Precision Instruments), electrode kits (EK1, World Precision Instruments), Power Lab with Chart5 software, water bath with external circulation and carbogen gas distribution and regulation system. Electrodes used in the set up were casted manually using 4% agarose in 0.9% sterile NaCl according to the manufacturer's recommendation.
The ussing chambers were assembled with an empty snapwell membrane (Costar 3407) and electrodes contained in Kreb's buffer (SIGMA-ALDRICH cat no K3753) for one hour at 37° C. in presence of 95% oxygen and 5% carbon dioxide. After this equilibration step the system was compensated for fluid resistance and input offset.
The equilibrated chambers were reassembled with a snapwell containing ALI cells and after 20 minutes stabilisation cumulative doses of the compounds were added to the apical side of the membrane. After the final dose 10 μM Benzamil was added to reach maximum.
All test compounds, including the reference compound, were diluted from 10 mM stocks in 100% DMSO and added to opaque 96-well plates (Greiner, Cat No. 651201). Dilution series of 12 doses were prepared in DMSO, starting with 3 μM followed by 10 times dilution steps.
Chart5 for Windows software was used to measure the value of the short circuit current after each compound addition. The data was transferred into Excel and analysed using IDBS XLfit® 5.2 (ID Business Solutions Ltd). The molar concentration of test or reference compound producing 50% inhibition (curve IC50) was derived by fitting data to a 4-parameter logistic function of the form: y=(A+((B−A)/(1+(((10^C)/x)^D))))
A The bottom plateau of the curve, i.e. the final minimum y value
B The top of the plateau of the curve i.e. the final maximum y value
C The log10 x value at a y value of 50%.

IC50 [pM]	Compound
316	Cc1ccccc1C[C@H](CNCC1CCN(C(=O)CCNC[C@H](O)[C@@H](O)[C@H](O)CO)CC1)CNC(=O)c1nc(Cl)c(N)nc1N [Example 1, 3,5-diamino-6-chloro-N—((R)-2-(2-methylbenzyl)-3-(((1-(3-(((2S,3R,4R)-2,3,4,5-tetrahydroxypentyl)amino)propanoyl)piperidin-4-yl)methyl)amino)propyl)pyrazine-2-carboxamide]
2510	CCCCCCN(CCNC(=O)c1ccc(CNC[C@H](CNC(=O)c2nc(Cl)c(N)nc2N)Cc2ccccc2C)cc1)C[C@H](O)[C@@H](O)[C@H](O)CO [Example 2, 3,5-diamino-6-chloro-N—((R)-3-((4-((2-(hexyl((2S,3R,4R)-2,3,4,5-tetrahydroxypentyl)amino)ethyl)carbamoyl)benzyl)amino)-2-(2-methylbenzyl)propyl)pyrazine-2-carboxamide]
79.4	CCCCCCN(CCNC(=O)N1CCC(CNC[C@H](CNC(=O)c2nc(Cl)c(N)nc2N)Cc2ccccc2C)CC1)C[C@H](O)[C@@H](O)[C@H](O)[C@H](O)CO [Example 3, 3,5-diamino-6-chloro-N—((R)-3-((1-(2-(hexyl((2S,3R,4R,5R)-2,3,4,5,6-pentahydroxyhexyl)amino)ethylcarbamoyl)piperidin-4-yl)methylamino)-2-(2-methylbenzyl)propyl)pyrazine-2-carboxamide]
631	CCCCCCN(CCC(=O)N1CCC(CNC[C@H](CNC(=O)c2nc(Cl)c(N)nc2N)Cc2ccccc2C)CC1)C[C@H](O)[C@@H](O)[C@H](O)[C@H](O)CO [Example 4, 3,5-diamino-6-chloro-N—((R)-3-((1-(3-(hexyl((2S,3R,4R,5R)-2,3,4,5,6-pentahydroxyhexyl)amino)propanoyl)piperidin-4-yl)methylamino)-2-(2-methylbenzyl)propyl)pyrazine-2-carboxamide]
1000	CCCCCCN(CCC(=O)N1CCC(CNC[C@H](CNC(=O)c2nc(Cl)c(N)nc2N)Cc2ccccc2C)CC1)C[C@H](O)[C@@H](O)[C@H](O)CO [Example 5, 3,5-diamino-6-chloro-N—((R)-3-((1-(3-(hexyl((2S,3R,4R)-2,3,4,5-tetrahydroxypentyl)amino)propanoyl)piperidin-4-yl)methylamino)-2-(2-methylbenzyl)propyl)pyrazine-2-carboxamide]
316	CCCCCCN(CCCC(=O)N1CCC(CNC[C@H](CNC(=O)c2nc(Cl)c(N)nc2N)Cc2ccccc2C)CC1)C[C@H](O)[C@@H](O)[C@H](O)[C@H](O)CO [Example 6, 3,5-diamino-6-chloro-N—((R)-3-((1-(4-(hexyl((2S,3R,4R,5R)-2,3,4,5,6-pentahydroxyhexyl)amino)butanoyl)piperidin-4-yl)methylamino)-2-(2-methylbenzyl)propyl)pyrazine-2-carboxamide]
1260	Cc1ccccc1C[C@H](CNCC1CCN(C(=O)CCNC[C@H](O)[C@@H](O)[C@H](O)[C@H](O)CO)CC1)CNC(=O)c1nc(Cl)c(N)nc1N [Example 7, 3,5-diamino-6-chloro-N—((R)-2-(2-methylbenzyl)-3-((1-(3-((2S,3R,4R,5R)-2,3,4,5,6-pentahydroxyhexylamino)propanoyl)piperidin-4-yl)methylamino)propyl)pyrazine-2-carboxamide]
316	CCCCCCN(CCC(=O)N1CCC(CNC[C@H](CNC(=O)c2nc(Cl)c(N)nc2N)Cc2ccccc2C)CC1)C[C@@H](O)[C@@H](O)[C@H](O)[C@H](O)CO [Example 8, 3,5-diamino-6-chloro-N—((R)-3-((1-(3-(hexyl((2R,3R,4R,5R)-2,3,4,5,6-pentahydroxyhexyl)amino)propanoyl)piperidin-4-yl)methylamino)-2-(2-methylbenzyl)propyl)pyrazine-2-carboxamide]
2510	CCCCCCN(CCNC(=O)c1ccc(CNC[C@H](CNC(=O)c2nc(Cl)c(N)nc2N)Cc2ccccc2C)cc1)C[C@@H](O)[C@@H](O)[C@H](O)[C@H](O)CO [Example 9, 3,5-diamino-6-chloro-N—((R)-3-((4-((2-(hexyl((2R,3R,4R,5R)-2,3,4,5,6-pentahydroxyhexyl)amino)ethyl)carbamoyl)benzyl)amino)-2-(2-methylbenzyl)propyl)pyrazine-2-carboxamide Dihydrochloride]
2510	CCCCCCN(CCNC(=O)c1ccc(CNC[C@H](CNC(=O)c2nc(Cl)c(N)nc2N)Cc2ccccc2C)cc1)C[C@H](O)[C@@H](O)[C@H](O)[C@H](O)CO [Example 10, 3,5-diamino-6-chloro-N—((R)-3-((4-((2-(hexyl((2S,3R,4R,5R)-2,3,4,5,6-pentahydroxyhexyl)amino)ethyl)carbamoyl)benzyl)amino)-2-(2-methylbenzyl)propyl)pyrazine-2-carboxamide]
251	CCCCCCN(CCNC(=O)c1ccc(CCNC[C@H](CNC(=O)c2nc(Cl)c(N)nc2N)Cc2ccccc2C)cc1)C[C@H](O)[C@@H](O)[C@H](O)[C@H](O)CO [Example 12, 3,5-diamino-6-chloro-N—((R)-3-((4-((2-(hexyl((2S,3R,4R,5R)-2,3,4,5,6-pentahydroxyhexyl)amino)ethyl)carbamoyl)phenethyl)amino)-2-(2-methylbenzyl)propyl)pyrazine-2-carboxamide Dihydrochloride]

Compound	IC50 [pM]
CCCCCCN(CCNC(=O)Oc1ccc(CNC[C@H](CNC(=O)c2nc(Cl)c(N)nc2N)Cc2ccccc2C)cc1)C[C@H](O)[C@@H](O)[C@H](O)[C@H](O)CO [Example 11, 4-(((R)-3-(3,5-diamino-6-chloropyrazine-2-carboxamido)-2-(2-methylbenzyl)propylamino)methyl)phenyl 2-(hexyl((2S,3R,4R,5R)-2,3,4,5,6-pentahydroxyhexyl)amino)ethylcarbamate]	1580
